Measured values reported in ChEMBL document CHEMBL1201862, “PubChem BioAssay data set” (2004).
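Grown in 96-well plates, cells were treated for 48 hours with each compound at five concentrations. Insufficient inhibition: endpoint recorded as highest concentration tested. GI50 = concentration required for 50% inhibition of growth.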 Active and inactive are the calls of the source. No stated cut-off is given here; in the data, active = GI50 up to about 1.1 µM and inactive = higher.

What was measured:
Assay in all cases: NCI-60 cell line screen, 48 h
A549 = system: A549
CCRF-CEM = system: CCRF-CEM
HCC 2998 = system: HCC 2998
HCT-116 = system: HCT-116
HL-60 = system: HL-60
HOP-92 = system: HOP-92
HT-29 = system: HT-29
KM12 = system: KM12
LOX IMVI = system: LOX IMVI
NCI-H460 = system: NCI-H460
NCI-H522 = system: NCI-H522
PC-3 = system: PC-3
RPMI-8226 = system: RPMI-8226
SF-268 = system: SF-268
SF-539 = system: SF-539
SK-MEL-2 = system: SK-MEL-2
SK-OV-3 = system: SK-OV-3
SNB-75 = system: SNB-75
SR = system: SR
SW-620 = system: SW-620

Measured: GI50

CN(C)c1ccc(/C=C2\N=C(NN)NC2=O)cc1
inactive: A549 61.8 µM | CCRF-CEM 65.8 µM | HCC 2998 80.9 µM | HCT-116 49.8 µM | HL-60 26.7 µM | HOP-92 59.8 µM | HT-29 31.3 µM | KM12 41.1 µM | LOX IMVI 35.3 µM | NCI-H460 69.8 µM | NCI-H522 46.1 µM | PC-3 40.2 µM | RPMI-8226 49.3 µM | SF-268 > 100 µM | SF-539 35.2 µM | SK-MEL-2 > 100 µM | SK-OV-3 > 100 µM | SNB-75 > 100 µM | SR 23.4 µM | SW-620 98.2 µM

O=c1[nH]c(=S)[nH]cc1CN1CCOCC1
inactive: A549 > 100 µM | CCRF-CEM > 100 µM | HCC 2998 > 100 µM | HCT-116 > 100 µM | HL-60 > 100 µM | HOP-92 > 100 µM | HT-29 > 100 µM | KM12 > 100 µM | LOX IMVI > 100 µM | NCI-H460 > 100 µM | NCI-H522 > 100 µM | PC-3 > 100 µM | RPMI-8226 > 100 µM | SF-268 > 100 µM | SF-539 > 100 µM | SK-MEL-2 > 100 µM | SK-OV-3 > 100 µM | SNB-75 > 100 µM | SR > 100 µM | SW-620 > 100 µM
